Biological target: ATR kinase (full-length ATR) (Homo sapiens (Human), UniProt Q13535)
Assay: ATR inhibition assay (radioactive-phosphate incorporation)
Assay type: biochemical
Conditions: not given
Outline: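 Ki(app) was fitted by non-linear regression to background-corrected initial rates. Full-length ATR (5 nM) phosphorylated 800 μM peptide using 10 μM [γ-33P]ATP at 25° C in Tris/HCl pH 7.5 buffer with MgCl2, DTT and 7% DMSO. After 10-minute compound pre-incubation and 24-hour reaction, phosphocellulose filters were scintillation counted.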

Chain of ATR kinase (full-length ATR) (Q13535 whole entry): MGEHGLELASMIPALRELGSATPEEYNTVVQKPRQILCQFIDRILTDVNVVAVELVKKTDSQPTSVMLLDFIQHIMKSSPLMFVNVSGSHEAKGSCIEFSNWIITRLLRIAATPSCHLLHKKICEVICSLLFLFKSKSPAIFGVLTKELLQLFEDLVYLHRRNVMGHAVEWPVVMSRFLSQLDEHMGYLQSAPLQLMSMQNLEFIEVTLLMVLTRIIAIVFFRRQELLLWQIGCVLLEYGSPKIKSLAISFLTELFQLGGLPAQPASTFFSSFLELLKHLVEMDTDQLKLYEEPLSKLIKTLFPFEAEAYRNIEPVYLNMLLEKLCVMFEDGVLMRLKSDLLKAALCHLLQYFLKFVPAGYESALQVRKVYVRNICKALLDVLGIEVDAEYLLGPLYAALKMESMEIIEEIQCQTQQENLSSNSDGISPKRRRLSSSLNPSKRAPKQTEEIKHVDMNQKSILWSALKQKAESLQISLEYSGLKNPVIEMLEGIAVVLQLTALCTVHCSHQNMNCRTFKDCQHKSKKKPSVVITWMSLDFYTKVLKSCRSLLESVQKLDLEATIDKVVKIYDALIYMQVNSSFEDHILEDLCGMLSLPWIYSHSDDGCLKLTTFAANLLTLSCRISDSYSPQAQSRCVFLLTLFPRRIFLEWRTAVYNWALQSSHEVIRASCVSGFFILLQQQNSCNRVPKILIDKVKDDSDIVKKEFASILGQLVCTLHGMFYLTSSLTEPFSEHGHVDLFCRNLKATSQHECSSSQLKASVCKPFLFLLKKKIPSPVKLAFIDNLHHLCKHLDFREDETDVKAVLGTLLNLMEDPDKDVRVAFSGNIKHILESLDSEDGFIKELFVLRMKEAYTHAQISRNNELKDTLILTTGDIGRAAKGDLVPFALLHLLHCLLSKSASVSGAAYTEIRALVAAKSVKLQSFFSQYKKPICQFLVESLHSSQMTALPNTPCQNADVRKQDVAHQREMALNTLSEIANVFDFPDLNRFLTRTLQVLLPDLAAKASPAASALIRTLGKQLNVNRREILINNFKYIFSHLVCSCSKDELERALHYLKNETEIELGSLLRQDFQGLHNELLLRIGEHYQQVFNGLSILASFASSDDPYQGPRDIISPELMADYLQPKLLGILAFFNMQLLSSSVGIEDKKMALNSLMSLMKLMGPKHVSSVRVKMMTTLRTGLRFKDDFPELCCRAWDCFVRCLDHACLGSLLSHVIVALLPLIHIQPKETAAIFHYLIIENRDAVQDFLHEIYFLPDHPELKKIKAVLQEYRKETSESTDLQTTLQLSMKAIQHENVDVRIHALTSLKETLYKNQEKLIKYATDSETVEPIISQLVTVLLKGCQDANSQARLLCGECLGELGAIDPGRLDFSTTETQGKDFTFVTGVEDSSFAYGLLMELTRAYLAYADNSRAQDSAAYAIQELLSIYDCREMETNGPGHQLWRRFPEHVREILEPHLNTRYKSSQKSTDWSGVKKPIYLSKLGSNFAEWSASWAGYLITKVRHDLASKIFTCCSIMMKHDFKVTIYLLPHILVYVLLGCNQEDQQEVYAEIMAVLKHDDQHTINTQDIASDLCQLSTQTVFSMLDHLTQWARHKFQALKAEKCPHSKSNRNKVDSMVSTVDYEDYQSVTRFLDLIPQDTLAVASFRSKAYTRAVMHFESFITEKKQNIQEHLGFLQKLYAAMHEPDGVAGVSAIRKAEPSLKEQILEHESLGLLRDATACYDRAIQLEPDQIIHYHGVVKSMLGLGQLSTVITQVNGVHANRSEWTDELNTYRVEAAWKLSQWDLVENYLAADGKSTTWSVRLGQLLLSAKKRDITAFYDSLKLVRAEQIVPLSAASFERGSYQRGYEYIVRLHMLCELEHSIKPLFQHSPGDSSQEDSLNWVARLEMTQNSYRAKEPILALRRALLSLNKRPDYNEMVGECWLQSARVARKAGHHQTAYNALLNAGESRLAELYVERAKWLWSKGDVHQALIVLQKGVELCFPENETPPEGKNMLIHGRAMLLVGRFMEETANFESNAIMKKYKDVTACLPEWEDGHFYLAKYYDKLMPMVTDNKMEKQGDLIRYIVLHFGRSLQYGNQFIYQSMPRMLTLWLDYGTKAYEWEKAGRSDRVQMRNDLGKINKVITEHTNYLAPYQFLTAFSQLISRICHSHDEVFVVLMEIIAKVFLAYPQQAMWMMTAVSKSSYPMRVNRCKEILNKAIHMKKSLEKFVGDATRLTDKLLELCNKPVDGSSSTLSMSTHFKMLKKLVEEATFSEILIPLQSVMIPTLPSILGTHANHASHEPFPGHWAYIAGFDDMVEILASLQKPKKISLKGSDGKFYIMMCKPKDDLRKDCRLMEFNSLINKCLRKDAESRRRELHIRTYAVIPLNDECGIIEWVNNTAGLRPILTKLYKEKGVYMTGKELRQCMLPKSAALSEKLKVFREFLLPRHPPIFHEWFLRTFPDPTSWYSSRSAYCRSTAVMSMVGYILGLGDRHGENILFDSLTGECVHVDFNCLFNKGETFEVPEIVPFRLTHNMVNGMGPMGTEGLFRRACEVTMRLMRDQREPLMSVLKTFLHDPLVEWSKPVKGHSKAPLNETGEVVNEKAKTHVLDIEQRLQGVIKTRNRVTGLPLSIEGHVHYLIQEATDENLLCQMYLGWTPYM

| SMILES | Ki [nM] |
| --- | --- |
| CN1CCN(c2c(NC(=O)c3c(N)nn4cc(F)cnc34)cncc2C(F)F)CC1 [I-N-111, 2-amino-N-(5-(difluoromethyl)-4-(4-methylpiperazin-1-yl)pyridin-3-yl)-6-fluoropyrazolo[1,5-a]pyrimidine-3-carboxamide] | 1000 to 5000 |

Same assay, conditions: Ki(app), 5 nM full-length ATR, 10 μM ATP, 25° C.

| SMILES | Ki [nM] |
| --- | --- |
| Nc1nn2cc(Cl)cnc2c1C(=O)Nc1cnccc1OC1CNC1 [I-O-73, 2-amino-N-(4-(azetidin-3-yloxy)pyridin-3-yl)-6-chloropyrazolo[1,5-a]pyrimidine-3-carboxamide] | 10 to 1000 |
| CN1CCN(c2ccncc2NC(=O)c2c(N)nn3cc(CC#N)cnc23)CC1 [I-N-82, 2-amino-6-(cyanomethyl)-N-(4-(4-methylpiperazin-1-yl)pyridin-3-yl)pyrazolo[1,5-a]pyrimidine-3-carboxamide] | < 10 |
| Nc1nn2cc(F)cnc2c1C(=O)Nc1cnccc1O[C@H]1CCCNC1 [I-O-85, (S)-2-amino-6-fluoro-N-(4-(piperidin-3-yloxy)pyridin-3-yl)pyrazolo[1,5-a]pyrimidine-3-carboxamide] | 10 to 1000 |
| CN1CCN(c2c(F)cncc2NC(=O)c2c(N)nn3cc(F)cnc23)CC1 [I-N-15, 2-amino-6-fluoro-N-(5-fluoro-4-(4-methylpiperazin-1-yl)pyridin-3-yl)pyrazolo[1,5-a]pyrimidine-3-carboxamide] | 10 to 1000 |
| CC(=O)N1CCC(c2ccncc2NC(=O)c2c(N)nn3cc(F)cnc23)CC1 [I-C-69, N-(4-(1-acetylpiperidin-4-yl)pyridin-3-yl)-2-amino-6-fluoropyrazolo[1,5-a]pyrimidine-3-carboxamide] | 10 to 1000 |
| Nc1nn2cc(Cl)cnc2c1C(=O)Nc1cnccc1N1C2CCC1CC(O)C2 (centres unmarked) [I-N-42, 2-amino-6-chloro-N-(4-(3-hydroxy-8-azabicyclo[3.2.1]octan-8-yl)pyridin-3-yl)pyrazolo[1,5-a]pyrimidine-3-carboxamide] | 10 to 1000 |
| CN1CCCC(Oc2ccncc2NC(=O)c2c(N)nn3cc(Cl)cnc23)C1 (centres unmarked) [I-O-51, 2-amino-6-chloro-N-(4-((1-methylpiperidin-3-yl)oxy)pyridin-3-yl)pyrazolo[1,5-a]pyrimidine-3-carboxamide] | 10 to 1000 |
| N#CCc1cnc2c(C(=O)Nc3cnccc3OC3CN4CCC3CC4)c(N)nn2c1 (racemic) [I-O-22, (R,S)-2-amino-6-(cyanomethyl)-N-(4-(quinuclidin-3-yloxy)pyridin-3-yl)pyrazolo[1,5-a]pyrimidine-3-carboxamide] | 10 to 1000 |
| CN1CCC(Oc2c(F)cncc2NC(=O)c2c(N)nn3cc(F)cnc23)CC1 [I-O-89, 2-amino-6-fluoro-N-(5-fluoro-4-((1-methylpiperidin-4-yl)oxy)pyridin-3-yl)pyrazolo[1,5-a]pyrimidine-3-carboxamide] | 10 to 1000 |
| CN1CCCCC1C(=O)N1CCN(c2c(F)cncc2NC(=O)c2c(N)nn3cc(F)cnc23)CC1 (centres unmarked) [I-N-214, 2-amino-6-fluoro-N-(5-fluoro-4-(4-(1-methylpiperidine-2-carbonyl)piperazin-1-yl)pyridin-3-yl)pyrazolo[1,5-a]pyrimidine-3-carboxamide] | 10 to 1000 |
| Nc1nn2cc(Cl)cnc2c1C(=O)Nc1cnccc1O[C@H]1C[C@]2(CCN2)C1 [I-O-78, N-(4-((4s,6r)-1-azaspiro[3.3]heptan-6-yloxy)pyridin-3-yl)-2-amino-6-chloropyrazolo[1,5-a]pyrimidine-3-carboxamide] | 10 to 1000 |
| Nc1nn2cc(F)cnc2c1C(=O)Nc1cnccc1-c1cccnc1 [I-C-15, N-([3,4′-bipyridin]-3′-yl)-2-amino-6-fluoropyrazolo[1,5-a]pyrimidine-3-carboxamide] | 10 to 1000 |
| Nc1nn2cc(F)cnc2c1C(=O)Nc1cnccc1N1CCN([C@@H]2CCOC2)CC1 [I-N-10, (R)-2-amino-6-fluoro-N-(4-(4-(tetrahydrofuran-3-yl)piperazin-1-yl)pyridin-3-yl)pyrazolo[1,5-a]pyrimidine-3-carboxamide] | 10 to 1000 |
| Nc1nn2cc(F)cnc2c1C(=O)Nc1cnccc1-c1cccnc1O [I-C-32, 2-amino-6-fluoro-N-(2-hydroxy-[3,4′-bipyridin]-3′-yl)pyrazolo[1,5-a]pyrimidine-3-carboxamide] | 10 to 1000 |
| CS(=O)(=O)c1ccc(-c2ccncc2NC(=O)c2c(N)nn3cc(F)cnc23)cc1 [I-C-61, 2-amino-6-fluoro-N-(4-(4-(methylsulfonyl)phenyl)pyridin-3-yl)pyrazolo[1,5-a]pyrimidine-3-carboxamide] | 10 to 1000 |
| Nc1nn2cc(F)cnc2c1C(=O)Nc1cncc(F)c1OC1CCN(C2COC2)CC1 [I-O-91, 2-amino-6-fluoro-N-(5-fluoro-4-((1-(oxetan-3-yl)piperidin-4-yl)oxy)pyridin-3-yl)pyrazolo[1,5-a]pyrimidine-3-carboxamide] | 10 to 1000 |
| COc1cncc(NC(=O)c2c(N)nn3cc(F)cnc23)c1-c1cncn1C [I-C-81, 2-amino-6-fluoro-N-(5-methoxy-4-(1-methyl-1H-imidazol-5-yl)pyridin-3-yl)pyrazolo[1,5-a]pyrimidine-3-carboxamide] | < 10 |
| Nc1nn2cc(F)cnc2c1C(=O)Nc1cncc(F)c1N1CCN(C(=O)C2CN3CCC2CC3)CC1 (centres unmarked) [I-N-130, 2-amino-6-fluoro-N-(5-fluoro-4-(4-(quinuclidine-3-carbonyl)piperazin-1-yl)pyridin-3-yl)pyrazolo[1,5-a]pyrimidine-3-carboxamide] | 10 to 1000 |

Other lines, results leading:

| Ki [nM] | SMILES |
| --- | --- |
| < 10 | COCCOc1ccncc1NC(=O)c1c(N)nn2cc(CC#N)cnc12 [I-O-29, 2-amino-6-(cyanomethyl)-N-(4-(2-methoxyethoxy)pyridin-3-yl)pyrazolo[1,5-a]pyrimidine-3-carboxamide] |
| 10 to 1000 | Cn1ncnc1-c1ccncc1NC(=O)c1c(N)nn2cc(F)cnc12 [I-C-65, 2-amino-6-fluoro-N-(4-(1-methyl-1H-1,2,4-triazol-5-yl)pyridin-3-yl)pyrazolo[1,5-a]pyrimidine-3-carboxamide] |
| < 10 | COc1ccncc1NC(=O)c1c(N)nn2cc(CC#N)cnc12 [I-O-26, 2-amino-6-(cyanomethyl)-N-(4-methoxypyridin-3-yl)pyrazolo[1,5-a]pyrimidine-3-carboxamide] |
| 10 to 1000 | Nc1nn2cc(F)cnc2c1C(=O)Nc1cnccc1N1CCN(C2CC2)CC1 [I-N-33, 2-amino-N-(4-(4-cyclopropylpiperazin-1-yl)pyridin-3-yl)-6-fluoropyrazolo[1,5-a]pyrimidine-3-carboxamide] |
| 10 to 1000 | Nc1nn2cc(Cl)cnc2c1C(=O)Nc1cnccc1N1CCC(N2CCn3ccnc3C2)CC1 [I-N-102, 2-amino-6-chloro-N-(4-(4-(5,6-dihydroimidazo[1,2-a]pyrazin-7(8H)-yl)piperidin-1-yl)pyridin-3-yl)pyrazolo[1,5-a]pyrimidine-3-carboxamide] |
| < 10 | NCC1CCN(c2ccncc2NC(=O)c2c(N)nn3cc(Cl)cnc23)CC1 [I-N-91, 2-amino-N-(4-(4-(aminomethyl)piperidin-1-yl)pyridin-3-yl)-6-chloropyrazolo[1,5-a]pyrimidine-3-carboxamide] |
| 10 to 1000 | Nc1nn2cc(F)cnc2c1C(=O)Nc1cnccc1C1CC1 [I-C-42, 2-amino-N-(4-cyclopropylpyridin-3-yl)-6-fluoropyrazolo[1,5-a]pyrimidine-3-carboxamide] |
| 10 to 1000 | Nc1nn2cc(Cl)cnc2c1C(=O)Nc1cnccc1N1CCC(N2CCC3(COC3)C2)CC1 [I-N-99, N-(4-(4-(2-oxa-6-azaspiro[3.4]octan-6-yl)piperidin-1-yl)pyridin-3-yl)-2-amino-6-chloropyrazolo[1,5-a]pyrimidine-3-carboxamide] |
| 10 to 1000 | CN(C)C1CCCN(c2ccncc2NC(=O)c2c(N)nn3cc(Cl)cnc23)C1 (centres unmarked) [I-N-40, 2-amino-6-chloro-N-(4-(3-(dimethylamino)piperidin-1-yl)pyridin-3-yl)pyrazolo[1,5-a]pyrimidine-3-carboxamide] |
| 10 to 1000 | Cc1ccc(-c2ccncc2NC(=O)c2c(N)nn3cc(F)cnc23)cn1 [I-C-22, 2-amino-6-fluoro-N-(6-methyl-[3,4′-bipyridin]-3′-yl)pyrazolo[1,5-a]pyrimidine-3-carboxamide] |
| 10 to 1000 | CC(C#N)c1cnc2c(C(=O)Nc3cnccc3N3CCN(C4COC4)CC3)c(N)nn2c1 (centres unmarked) [I-N-143, 2-amino-6-(1-cyanoethyl)-N-(4-(4-(oxetan-3-yl)piperazin-1-yl)pyridin-3-yl)pyrazolo[1,5-a]pyrimidine-3-carboxamide] |
| 10 to 1000 | COC1CCN(c2ccncc2NC(=O)c2c(N)nn3cc(Cl)cnc23)CC1 [I-N-73, 2-amino-6-chloro-N-(4-(4-methoxypiperidin-1-yl)pyridin-3-yl)pyrazolo[1,5-a]pyrimidine-3-carboxamide] |
| 10 to 1000 | Nc1nn2cc(F)cnc2c1C(=O)Nc1cncc(F)c1N1CCC(C(=O)N2CCN(C3CCC3)CC2)CC1 [I-G-35, 2-amino-N-(4-(4-(4-cyclobutylpiperazine-1-carbonyl)piperidin-1-yl)-5-fluoropyridin-3-yl)-6-fluoropyrazolo[1,5-a]pyrimidine-3-carboxamide] |
| 10 to 1000 | Nc1nn2cc(F)cnc2c1C(=O)Nc1cnccc1N1CCC(c2ncon2)CC1 [I-N-241, N-(4-(4-(1,2,4-oxadiazol-3-yl)piperidin-1-yl)pyridin-3-yl)-2-amino-6-fluoropyrazolo[1,5-a]pyrimidine-3-carboxamide] |
| 10 to 1000 | Nc1nn2cc(F)cnc2c1C(=O)Nc1cncc(F)c1N1CCC(C(=O)N2CC3CNCC3C2)CC1 (centres unmarked) [I-G-51, 2-amino-6-fluoro-N-(5-fluoro-4-(4-(octahydropyrrolo[3,4-c]pyrrole-2-carbonyl)piperidin-1-yl)pyridin-3-yl)pyrazolo[1,5-a]pyrimidine-3-carboxamide] |
| 10 to 1000 | Nc1nn2cc(F)cnc2c1C(=O)Nc1cncc(F)c1N1CCC(C(=O)N2CCC(N3CCCC3)CC2)CC1 [I-G-59, 2-amino-6-fluoro-N-(5-fluoro-4-(4-(4-(pyrrolidin-1-yl)piperidine-1-carbonyl)piperidin-1-yl)pyridin-3-yl)pyrazolo[1,5-a]pyrimidine-3-carboxamide] |

Source: patent US10392391B2 (Vertex Pharmaceuticals Incorporated, priority 2012, dated 2019)
